Common to all, as to assay type: biochemical
One test has as its target T1, pyruvate kinase (Cdc19) (Saccharomyces cerevisiae, UniProt P00549).
T1 sequence (P00549 2-500): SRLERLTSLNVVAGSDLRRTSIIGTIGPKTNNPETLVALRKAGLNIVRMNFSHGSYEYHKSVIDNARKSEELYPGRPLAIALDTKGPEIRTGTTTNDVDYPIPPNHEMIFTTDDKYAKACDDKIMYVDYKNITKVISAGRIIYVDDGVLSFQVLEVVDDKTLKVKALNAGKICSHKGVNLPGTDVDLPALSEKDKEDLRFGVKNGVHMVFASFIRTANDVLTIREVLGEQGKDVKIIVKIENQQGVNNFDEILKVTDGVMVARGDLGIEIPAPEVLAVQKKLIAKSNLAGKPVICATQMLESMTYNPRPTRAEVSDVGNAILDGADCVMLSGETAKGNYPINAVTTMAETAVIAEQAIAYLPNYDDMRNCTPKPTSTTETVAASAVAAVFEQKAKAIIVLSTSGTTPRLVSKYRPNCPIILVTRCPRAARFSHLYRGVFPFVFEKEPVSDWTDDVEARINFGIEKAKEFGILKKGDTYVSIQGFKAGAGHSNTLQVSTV

The target of test [1] is T2, pyruvate decarboxylase (Pdc1) (Saccharomyces cerevisiae, UniProt P06169).
T2 sequence (P06169 2-563): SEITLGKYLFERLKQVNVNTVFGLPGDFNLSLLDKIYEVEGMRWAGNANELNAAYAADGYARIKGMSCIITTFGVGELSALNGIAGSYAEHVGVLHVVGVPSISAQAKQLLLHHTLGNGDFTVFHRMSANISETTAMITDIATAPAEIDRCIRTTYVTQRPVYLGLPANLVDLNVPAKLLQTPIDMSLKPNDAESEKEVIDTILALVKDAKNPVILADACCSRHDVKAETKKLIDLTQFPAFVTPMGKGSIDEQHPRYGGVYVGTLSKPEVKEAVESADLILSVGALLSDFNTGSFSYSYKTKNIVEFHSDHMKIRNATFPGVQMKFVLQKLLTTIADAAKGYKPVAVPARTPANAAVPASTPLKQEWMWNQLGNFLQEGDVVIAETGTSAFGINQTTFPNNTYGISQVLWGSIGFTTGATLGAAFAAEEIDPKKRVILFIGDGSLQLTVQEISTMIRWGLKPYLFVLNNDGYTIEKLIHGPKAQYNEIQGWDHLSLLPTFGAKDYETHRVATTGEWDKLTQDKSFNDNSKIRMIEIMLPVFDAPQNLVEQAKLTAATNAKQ
Put plainly: ADH/NADH-coupled spectrophotometric assay, 1H-NMR confirmation.

The target of test [2] is ornithine transcarbamylase (Arg3) (Saccharomyces cerevisiae, UniProt P05150).

Data on 3 molecules can be found in publication PMC5414049 (Science (New York, N.Y.), 2016).

As usually defined, the Ki is the equilibrium dissociation constant of an inhibitor or competing ligand from its target.

Sequence of ornithine transcarbamylase (Arg3) (P05150 2-338): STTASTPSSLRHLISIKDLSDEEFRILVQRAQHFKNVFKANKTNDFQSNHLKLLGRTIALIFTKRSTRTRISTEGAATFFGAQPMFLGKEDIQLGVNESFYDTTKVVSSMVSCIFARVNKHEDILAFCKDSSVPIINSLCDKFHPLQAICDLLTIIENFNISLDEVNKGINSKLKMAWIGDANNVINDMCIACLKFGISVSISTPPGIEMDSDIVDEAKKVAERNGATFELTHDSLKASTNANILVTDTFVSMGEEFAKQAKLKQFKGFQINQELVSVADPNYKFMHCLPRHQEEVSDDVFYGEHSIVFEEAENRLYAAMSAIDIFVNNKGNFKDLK

`O=C(O)CC(O)(CC(=O)O)C(=O)O` [citrate]: at pyruvate kinase (Cdc19), the Ki is approximately 5 mM.

Consider `O=C(O)C(=O)Cc1ccccc1` [phenylpyruvate], for which, in test [1], the Ki is 1 to 4 mM.

Turning to `C[C@H](N)C(=O)O` [alanine], in test [2], the Ki was found to be 15 mM.
